US20100317831A1, “PROBE COMPOUNDS FOR PROTEIN TYROSINE PHOSPHATASE (PTP) AND PRECURSORS THEREOF” (NATIONAL TAIWAN UNIVERSITY, priority 2009, published 2010)

Biological target: T1, PTP1B (Homo sapiens, UniProt P18031)
T1 sequence (P18031 1-435): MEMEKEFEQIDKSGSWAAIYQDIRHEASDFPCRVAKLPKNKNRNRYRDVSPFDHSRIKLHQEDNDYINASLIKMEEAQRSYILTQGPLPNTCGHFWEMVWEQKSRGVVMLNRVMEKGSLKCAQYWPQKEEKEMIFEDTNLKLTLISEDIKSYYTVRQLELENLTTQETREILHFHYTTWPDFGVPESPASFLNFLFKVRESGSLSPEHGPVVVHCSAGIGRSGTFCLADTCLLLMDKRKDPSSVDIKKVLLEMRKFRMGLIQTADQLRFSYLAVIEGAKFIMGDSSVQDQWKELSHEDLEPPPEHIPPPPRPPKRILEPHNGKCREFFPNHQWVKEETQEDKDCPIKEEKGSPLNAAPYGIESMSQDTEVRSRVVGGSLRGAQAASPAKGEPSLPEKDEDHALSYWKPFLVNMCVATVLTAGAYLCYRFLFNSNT
Assay: PTP1B labeling by probe compound (streptavidin immunoblot)
Assay type: biochemical
Description: FIG. 1b was visualized by immunoblotting analysis (streptavidin) after transferring the reaction products onto a nitrocellulose membrane. […] Since the probe compounds themselves are also the substrates of the corresponding PTPs, the results clearly indicate that the newly developed latent trapping unit well mimics the phosphorotyrosine residue of the natural substrate. […] In the absence of PTPs, they underwent hydrolysis slowly and the purity remained greater than 90% even after 1 hr (as determined by HPLC).
To test if probe compounds 30a-c could differentiate PTPs from other phosphatases, we conducted labeling experiments on nine phosphatases, including five PTPs, alkaline phosphatase (ALP), PTEN (dephosphorylating the phosphatidylinositol 3,4,5-trisphosphate), and two serine/threonine phosphatases (PPP1CA and PPM1A).
In order to further study how well probe compounds 30a-c could differentiate between the various PTPs, we compared the labeling intensities on five PTPs (PTP1B, SHP2, TCPTP, VHR, and PTPPEST) with those obtained from probe 1 (LCL2). When the intensities of the probe compounds 30a-c-labeled bands in each set of experiments were normalized relative to that of a probe 1-labeled band, we were able to establish a quantitative comparison of their labeling preference (as shown in FIGS. 4a to 4e). […] Of the five PTPs tested, the substrate specificities of PTP1B, TCPTP, and SHP2 were better studied than those of VHR and PTP-PEST. […] The trend of substrate preference obtained from this study was similar to those determined by other methods. We have also compared the labeling intensity data for the other two PTPs, VHR (a dual-specificity phosphatase) and PTP-PEST (a classical PTP). […] This provides evidence to support the concept that probe compounds with added amino acid residues flanking the latent trapping device were able to influence their target specificities.

CC(C)CC(NC(=O)C(Cc1ccc(OP(=O)(O)O)c(CF)c1)NC(=O)C(CCC(=O)O)NC(=O)CCC(=O)NCCOCCOCCNC(=O)CCCCC1SC[C@H]2NC(=O)N[C@@H]12)C(N)=O (stereo partly drawn) [compound 30b]
biotinylated adduct (labeling of PTP1B) with phosphatase inhibitor present (Na3VO4 present in the incubation mixture): no biotinylated adduct was observed
activity dependence of labeling of PTPs (PTP1B and TCPTP, conclusion from Na3VO4 control): activity dependent
biotinylated protein bands (labeling of PTP1B) (immunoblotting analysis (streptavidin), FIG. 1b): Intense biotinylated protein bands were observed
